Laboratory results: US20260146044A1, “AROMATIC COMPOUND, PHARMACEUTICAL COMPOSITION CONTAINING SAME, AND USE THEREOF” (Increland, priority 2023, published 2026)
Where two headings read alike, the source gives them in different places.

Experiments:
[1] = tested on: secretion levels of IL-6 in PBMC cells; test: Inhibition of R848-induced IL-6 secretion in PBMC (IL-6 ELISA); format: cell-based; conditions: human PBMC, 20 h compound pre-incubation, 24 h stimulation
In short: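 PBMC pre-treated with compounds (top 1 μM, 4-fold dilutions) in RPMI 1640/10% FBS for 20 h at 37 °C, then stimulated with R848 ([…] final) for another 24 h. Supernatant IL-6 by ELISA (OD450, standard curve); IC50 from dose-effect curve fit.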

[2] = tested on: IMQ-induced psoriasis model; test: IMQ-induced psoriasis model, skin thickening and ear thickening; format: in vivo, BALB/c mice; conditions: BID, gavage; for IMQ-induced psoriatic ear thickening, P compared with the Model group: FIG. 2
Protocol: Male BALB/c mice aged 6-8 weeks were randomly grouped into 15 groups or 6 groups after 1 week of adaptive feeding: control group, imiquimod model group (i.e., Model group), clobetasol propionate group (i.e., CLO group), the compounds of the present invention: TM-57 ICL-004192 (3 mg/kg, 10 mg/kg, 30 mg/kg), TM-109ICL-004240 (3 mg/kg, 10 mg/kg, 30 mg/kg, 60 mg/kg), TM-101ICL-004250 (3 mg/kg, 10 mg/kg, 30 mg/kg, 60 mg/kg), with 5 mice per group, and the Control group, the imiquimod model group (i.e., the Model group), and the clobetasol propionate group (i.e., the CLO group). On day 0, each of the mice was unhaired on the back using a hair removal cream, with a hair removal area of 2.5 cm×1.5 cm. On the first day, IMQ cream was used for modeling, and a corresponding drug was administered by gavage for treatment. The compounds of the present invention were administered by gavage at corresponding doses twice daily in the morning and evening with an interval of 8 h between two administrations. 2 h after the first gavage on a same day, the IMQ cream was applied to the to-be-unhaired site on the back and the left ear of each of the mice, with doses of the IMQ cream administered to the to-be-unhaired site on the back and the left ear being 62.5 mg and 7.5 mg, respectively. 5 h after the IMQ cream was applied to the to-be-unhaired area on the back and the left ear of each of the mice in the CLO group, clobetasol propionate cream was applied once daily. The blank group and the IMQ group were administrated with a vehicle twice daily in the morning and evening with an interval of 8 h between two administrations. […]
Referring to the Psoriasis Area and Severity Index (PASI) scoring criteria, the psoriasis, erythema, and thickness of skin lesions on the back were scored from 0 to 4 every morning from day 1 of modeling, with the scoring criteria as shown in Table 1. […] The ear thickness of the left ear of the mouse was measured using a digital vernier caliper three times every morning from day 1, to obtain a mean value.

[3] = Pharmacokinetic experiment on SD rats (iv and ig); format: in vivo; conditions: Sprague-Dawley, rat, plasma; for Cmax: read-out: Peak plasma concentration Cmax; for bioavailability: ig 5.00 mg/kg vs iv 1.00 mg/kg, read-out: Oral bioavailability Fobs (%)
Protocol: Pharmacokinetic experiment on SD rats: in this experiment, two administration modes: oral intragastric administration and tail vein injection were selected. Each of the compounds of the present patented invention was administered at an oral dose of 5 mg/kg at an administration volume of 10 mL/kg. […] Appropriate amounts of Solutol and H2O were proportionally added sequentially, and fully mixed ultrasonically by vortexing, to prepare a clear drug solution at 0.5 mg/mL. ICL004-protodrug was administered by intravenous injection at a dose of 1 mg/kg at an administration volume of 10 mL/kg. Right before use, an appropriate amount of the drug was accurately weighed, to prepare a final volume of 20% PEG 400 and 80% Saline. Appropriate amounts of PEG 400 and Saline were proportionally added sequentially, and fully mixed ultrasonically by vortexing, to prepare a clear drug solution at 0.1 mg/mL.
6 SD rats, each with body weight of 180-220 g, were randomly grouped into 2 groups. After fasting but with free access to water overnight, each […] in the first group was administered by gavage. 200 μL of blood was sampled from its eye socket into an anticoagulant tube respectively at each time point of 15 min, 30 min, 1 h, 2 h, 4 h, 6 h, 8 h, and 24 h after administration. Within one h, each of the blood samples was centrifuged at 10,000 rpm at 4° C. for 20 min (the sample was stored on an ice box prior to the centrifugation), and the supernatant (i.e., the plasma) was stored in a refrigerator at −20° C. for LC-MS/MS analysis. 200 μL of blood was sampled from the eye socket of each […] in the second group into an anticoagulant tube respectively at each time point of 5 min, 15 min, 30 min, 1 h, 2 h, 4 h, 8 h, and 24 h after administration by intravenous injection. Within one h, each of the blood samples was centrifuged at 10,000 rpm at 4° C. for 20 min (the blood sample was stored on an ice box prior to the centrifugation), and the supernatant, i.e., the plasma, was stored in a refrigerator at −20° C. for LC-MS/MS analysis.

Row | AUC ([3]; iv, 1.00 mg/kg) | AUC(0-inf) ([3]; iv, 1.00 mg/kg) | Cmax ([3]; iv, 1.00 mg/kg) | bioavailability ([3]; po) | AUC ([3]; po, ig, 5.00 mg/kg) | AUC(0-inf) ([3]; po, ig, 5.00 mg/kg) | Cmax ([3]; po, ig, 5.00 mg/kg) | Structure (SMILES) | IC50 [1] | IMQ-induced psoriatic skin thickening, P compared with the Model group ([2]; 30 mg/kg, FIG. 1) | IMQ-induced psoriatic ear thickening, P compared with the Model group ([2]; 30 mg/kg) | IMQ-induced psoriatic ear thickening, P compared with the Model group ([2]; 60 mg/kg)
1 | 499 ng·h/mL | 526 ng·h/mL | 225 ng/mL | 46.6% | 580 ng·h/mL | 1230 ng·h/mL | 79.7 ng/mL | Cc1nn(C2CCC(=O)NC2=O)c2cccc(N3CC4CN(C[C@H]5CC[C@H](n6cc7cc(NC(=O)c8cnn9cccnc89)c(N8CCOCC8)cc7n6)CC5)CC4C3)c12 (stereo partly drawn) [TM-57] | 3.43 nM | < 0.01 | < 0.0001 | 
2 | 537 ng·h/mL | 776 ng·h/mL | 101 ng/mL | 7.87% | 268 ng·h/mL | 306 ng·h/mL | 23 ng/mL | Cc1nn(C2CCC(=O)NC2=O)c2cncc(N3CCN(C[C@H]4CC[C@H](n5cc6cc(NC(=O)c7cnn8cccnc78)c(N7CCO[C@H](C)C7)cc6n5)CC4)CC3)c12 (stereo partly drawn) [TM-109] |  |  |  | < 0.01
